Experiments:
Conditions in all cases: 72 h
[1] = system: U2OS; test: drug sensitivity score (DSS) for viability; higher = more toxic; extreme values may be limits of the assay
[2] = system: HepG2; test: as above
[3] = system: Vero E6; test: as above
[4] = system: Calu-3; test: as above
[5] = system: Caco-2; test: as above
[6] = system: U2OS; test: relative viability EC50 (midpoint between 100% and the lowest measured viability); higher = less toxic
[7] = system: HepG2; test: as above
[8] = system: Vero E6; test: as above
[9] = system: Calu-3; test: as above
[10] = system: Caco-2; test: as above
[11] = system: U2OS; test: cell viability relative to DMSO; higher = less toxic
[12] = system: HepG2; test: as above
[13] = system: Vero E6; test: as above
[14] = system: Calu-3; test: as above
[15] = system: Caco-2; test: as above

Row | Structure (SMILES) | drug sensitivity score [1] | drug sensitivity score [2] | drug sensitivity score [3] | drug sensitivity score [4] | drug sensitivity score [5] | relative viability EC50 [6] [µM] | relative viability EC50 [7] [µM] | relative viability EC50 [8] [µM] | relative viability EC50 [9] [µM] | relative viability EC50 [10] [µM] | cell viability ([11]; 1 nM) [%] | cell viability ([11]; 10 nM) [%] | cell viability ([11]; 100 nM) [%] | cell viability ([11]; 1000 nM) [%] | cell viability ([11]; 10000 nM) [%] | cell viability ([12]; 1 nM) [%] | cell viability ([12]; 10 nM) [%] | cell viability ([12]; 100 nM) [%] | cell viability ([12]; 1000 nM) [%] | cell viability ([12]; 10000 nM) [%] | cell viability ([13]; 1 nM) [%] | cell viability ([13]; 10 nM) [%] | cell viability ([13]; 100 nM) [%] | cell viability ([13]; 1000 nM) [%] | cell viability ([13]; 10000 nM) [%] | cell viability ([14]; 1 nM) [%] | cell viability ([14]; 10 nM) [%] | cell viability ([14]; 100 nM) [%] | cell viability ([14]; 1000 nM) [%] | cell viability ([14]; 10000 nM) [%] | cell viability ([15]; 1 nM) [%] | cell viability ([15]; 10 nM) [%] | cell viability ([15]; 100 nM) [%] | cell viability ([15]; 1000 nM) [%] | cell viability ([15]; 10000 nM) [%]
1 | O=C1C(CC[S+]([O-])c2ccccc2)C(=O)N(c2ccccc2)N1c1ccccc1 (stereo not given) [sulfinpyrazone] | 0 | 0 | 0 | 0 | 0 | > 10 | > 10 | > 10 | > 10 | > 10 | 97.5 | 102 | 104 | 102 | 102 | 109 | 115 | 110 | 97.7 | 110 | 106 | 103 | 100 | 97.1 | 103 | 93.2 | 98 | 98.9 | 94 | 105 | 102 | 103 | 98.5 | 99.8 | 90.5
2 | COc1cc(O)c(C(=O)c2ccccc2)cc1S(=O)(=O)O [sulisobenzone] | 0 | 0 | 0 | 0 | 0 | > 10 | > 10 | > 10 | > 10 | > 10 | 103 | 94.8 | 98.4 | 94.6 | 98.7 | 93.3 | 101 | 99.8 | 99.3 | 98.3 | 103 | 99.1 | 95.7 | 95.9 | 89.9 | 100 | 106 | 98.1 | 109 | 102 | 104 | 96.3 | 102 | 91.8 | 103
3 | Cn1nnc2c(C(N)=O)ncn2c1=O [temozolomide] | 0 | 0 | 0 | 0 | 0 | > 10 | > 10 | > 10 | > 10 | > 10 | 98 | 103 | 92.3 | 96.8 | 95 | 112 | 99.6 | 104 | 93.5 | 114 | 99.4 | 97.5 | 95.9 | 98.2 | 102 | 97.6 | 106 | 102 | 94.5 | 98.6 | 90.3 | 97.3 | 96 | 106 | 99.3

Source: the supplement of paper PMC13380429
